# Patent publication US9833497B2, “Human originated EGF domain proteins and use of the same” (CHENGDU SOURCEBIO LIMITED-LIABILITY COMPANY, priority 2013, dated 2017)
# Key:
# Format in all cases: cell-based
# Proteus vulgaris = assay: MIC against Gram-negative bacteria: Proteus vulgaris; settings: for MIC P. vulgaris / MIC (μg/mL) P. vulgaris: 5×10^5 CFU/mL
# How it was run: (§1)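 LB broth cultures at McFarland 0.5, spun down, resuspended, diluted to 5×10^5 CFU/mL final. Two-fold serial dilutions of purified human EGF domain proteins, triplicate. 37° C, 175 rpm shaking. Endpoint: no visible growth.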
# E. coli BL21 = assay: MIC against Gram-negative bacteria: E. coli BL21; settings: for MIC E. coli BL21 / MIC (μg/mL) E. coli BL21: 5×10^5 CFU/mL
# How it was run: as §1
# Pseudomonas aeruginosa = assay: MIC against Gram-negative bacteria: Pseudomonas aeruginosa; settings: for MIC P. aeruginosa / MIC (μg/mL) P. aeruginosa: 5×10^5 CFU/mL
# How it was run: as §1
# Serratia marcescens = assay: MIC against Gram-negative bacteria: Serratia marcescens; settings: for MIC S. marcescens / MIC (μg/mL) S. marcescens: 5×10^5 CFU/mL
# How it was run: as §1
# Klebsiella pneumonia = assay: MIC against Gram-negative bacteria: Klebsiella pneumonia; settings: for MIC K. pneumonia / MIC (μg/mL) K. pneumonia: 5×10^5 CFU/mL
# How it was run: as §1
# Enterobacter cloacae = assay: MIC against Gram-negative bacteria: Enterobacter cloacae; settings: for MIC E. cloacae / MIC (μg/mL) E. cloacae: 5×10^5 CFU/mL
# How it was run: as §1
# Moraxella catarrhalis = assay: MIC against Gram-negative bacteria: Moraxella catarrhalis; settings: for MIC M. catarrhalis / MIC (μg/mL) M. catarrhalis: 5×10^5 CFU/mL
# How it was run: as §1
# Citrobacter diversus = assay: MIC against Gram-negative bacteria: Citrobacter diversus; settings: for MIC C. diversus / MIC (μg/mL) C. diversus: 5×10^5 CFU/mL
# How it was run: as §1
# Proteus mirabilis = assay: MIC against Gram-negative bacteria: Proteus mirabilis; settings: for MIC P. mirabilis / MIC (μg/mL) P. mirabilis: 5×10^5 CFU/mL
# How it was run: as §1
# E. coli DH5α = assay: Antibacterial activity: MIC and growth curve against E. coli DH5α in 96-well plate; settings: minimal inhibitory concentration against E. coli DH5α; 96-well plate, 5×10^5 CFU/mL, 37° C., judged after 8 h
# How it was run: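 Log-phase DH5α (OD600 about 0.5, 37° C, 185 rpm in LB) was pelleted, resuspended in fresh LB and seeded at 5×10^5 CFU/mL with recombinant protein at 50, 25 and 12.5 μg/mL (two-fold series), in triplicate. Plates were shaken at 175 rpm, 37° C, and OD600 was read every 30 min. MIC was the lowest concentration with no growth.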
# Aeromonas hydrophila = assay: MIC against Gram-negative bacteria: Aeromonas hydrophila; settings: for MIC A. hydrophila / MIC (μg/mL) A. hydrophila: 5×10^5 CFU/mL
# How it was run: as §1
# [1] = 10 h cultivation at 37° C., two-fold serial dilution
# [2] = P. vulgaris, 10 h cultivation at 37° C.
# [3] = E. coli BL21, 10 h cultivation at 37° C.
# [4] = P. aeruginosa, 10 h cultivation at 37° C.
# [5] = S. marcescens, 10 h cultivation at 37° C.
# [6] = K. pneumonia, 10 h cultivation at 37° C.
# [7] = E. cloacae, 10 h cultivation at 37° C.
# [8] = M. catarrhalis, 10 h cultivation at 37° C.
# [9] = C. diversus, 10 h cultivation at 37° C.
# [10] = P. mirabilis, 10 h cultivation at 37° C.
# [11] = A. hydrophila, 10 h cultivation at 37° C.
substance,measurement,setting,value
PRT1147 (ELDACSFKPCKNNGSCINKRENWDEQAYECVCHPPFTGKNCS; listed as Homo sapiens),MIC P. vulgaris,Proteus vulgaris; [1],50 µg/mL
same,MIC E. coli BL21,E. coli BL21; [1],12.5 µg/mL
same,MIC P. aeruginosa,Pseudomonas aeruginosa; [1],50 µg/mL
same,MIC S. marcescens,Serratia marcescens; [1],25 µg/mL
same,MIC K. pneumonia,Klebsiella pneumonia; [1],12.5 µg/mL
same,MIC E. cloacae,Enterobacter cloacae; [1],50 µg/mL
same,MIC M. catarrhalis,Moraxella catarrhalis; [1],12.5 µg/mL
same,MIC C. diversus,Citrobacter diversus; [1],25 µg/mL
same,MIC P. mirabilis,Proteus mirabilis; [1],25 µg/mL
same,MIC,E. coli DH5α,50 µg/mL
same,MIC A. hydrophila,Aeromonas hydrophila; [1],25 µg/mL
PRT721 (DIDECTEMPFVCSQKCENVIGSYICKCAPGYLREPDGKTCR; listed as Homo sapiens),MIC P. vulgaris,"Proteus vulgaris; 96-well plate, 37° C., 10 h",12.5 µg/mL
same,MIC E. coli BL21,"E. coli BL21; 96-well plate, 37° C., 10 h",12.5 µg/mL
same,MIC P. aeruginosa,"Pseudomonas aeruginosa; 96-well plate, 37° C., 10 h",25 µg/mL
same,MIC S. marcescens,"Serratia marcescens; 96-well plate, 37° C., 10 h",50 µg/mL
same,MIC K. pneumonia,"Klebsiella pneumonia; 96-well plate, 37° C., 10 h",50 µg/mL
same,MIC E. cloacae,"Enterobacter cloacae; 96-well plate, 37° C., 10 h",25 µg/mL
same,MIC M. catarrhalis,"Moraxella catarrhalis; 96-well plate, 37° C., 10 h",50 µg/mL
same,MIC C. diversus,"Citrobacter diversus; 96-well plate, 37° C., 10 h",25 µg/mL
same,MIC P. mirabilis,"Proteus mirabilis; 96-well plate, 37° C., 10 h",12.5 µg/mL
same,MIC,E. coli DH5α,25 µg/mL
same,MIC A. hydrophila,"Aeromonas hydrophila; 96-well plate, 37° C., 10 h",12.5 µg/mL
PRT188 (HVSDCARNPCAHGGTCHDLENGLMCTCPAGFSGRRCE; listed as Homo sapiens),MIC (μg/mL) P. vulgaris,Proteus vulgaris; [2],25 µg/mL
same,MIC (μg/mL) E. coli BL21,E. coli BL21; [3],12.5 µg/mL
same,MIC (μg/mL) P. aeruginosa,Pseudomonas aeruginosa; [4],50 µg/mL
same,MIC (μg/mL) S. marcescens,Serratia marcescens; [5],12.5 µg/mL
same,MIC (μg/mL) K. pneumonia,Klebsiella pneumonia; [6],12.5 µg/mL
same,MIC (μg/mL) E. cloacae,Enterobacter cloacae; [7],50 µg/mL
same,MIC (μg/mL) M. catarrhalis,Moraxella catarrhalis; [8],25 µg/mL
same,MIC (μg/mL) C. diversus,Citrobacter diversus; [9],12.5 µg/mL
same,MIC (μg/mL) P. mirabilis,Proteus mirabilis; [10],12.5 µg/mL
same,MIC,E. coli DH5α,12.5 µg/mL
same,MIC (μg/mL) A. hydrophila,Aeromonas hydrophila; [11],12.5 µg/mL
PRT170 (CTHHKPCKNGATCTNTGQGSYTCSCRPGYTGATC; listed as Homo sapiens),MIC (μg/mL) P. vulgaris,Proteus vulgaris; [2],25 µg/mL
same,MIC (μg/mL) E. coli BL21,E. coli BL21; [3],25 µg/mL
same,MIC (μg/mL) P. aeruginosa,Pseudomonas aeruginosa; [4],12.5 µg/mL
same,MIC (μg/mL) S. marcescens,Serratia marcescens; [5],12.5 µg/mL
same,MIC (μg/mL) K. pneumonia,Klebsiella pneumonia; [6],25 µg/mL
same,MIC (μg/mL) E. cloacae,Enterobacter cloacae; [7],50 µg/mL
same,MIC (μg/mL) M. catarrhalis,Moraxella catarrhalis; [8],25 µg/mL
same,MIC (μg/mL) C. diversus,Citrobacter diversus; [9],12.5 µg/mL
same,MIC (μg/mL) P. mirabilis,Proteus mirabilis; [10],50 µg/mL
same,MIC,E. coli DH5α,50 µg/mL
same,MIC (μg/mL) A. hydrophila,Aeromonas hydrophila; [11],25 µg/mL
PRT1014 (LRDFCSANPCVNGGVCLATYPQIQCHCPPGFEGHACE; listed as Homo sapiens),MIC,Proteus vulgaris; [2],50 µg/mL
same,MIC,E. coli BL21; [3],25 µg/mL
same,MIC,Pseudomonas aeruginosa; [4],50 µg/mL
same,MIC,Serratia marcescens; [5],25 µg/mL
same,MIC,Klebsiella pneumonia; [6],25 µg/mL
same,MIC,Enterobacter cloacae; [7],12.5 µg/mL
same,MIC,Moraxella catarrhalis; [8],50 µg/mL
same,MIC,Citrobacter diversus; [9],12.5 µg/mL
same,MIC,Proteus mirabilis; [10],12.5 µg/mL
same,MIC,E. coli DH5α,12.5 µg/mL
same,MIC,Aeromonas hydrophila; [11],50 µg/mL
PRT600 (CDCNPLGSLPFLTCDVDTGQCLCLSYVTGAHCEECTVGYWGLGNHLHGCSP; listed as Homo sapiens),MIC P. vulgaris,"Proteus vulgaris; 96-well plate, 37° C., 10 h",12.5 µg/mL
same,MIC E. coli BL21,"E. coli BL21; 96-well plate, 37° C., 10 h",12.5 µg/mL
same,MIC P. aeruginosa,"Pseudomonas aeruginosa; 96-well plate, 37° C., 10 h",25 µg/mL
same,MIC S. marcescens,"Serratia marcescens; 96-well plate, 37° C., 10 h",25 µg/mL
same,MIC K. pneumonia,"Klebsiella pneumonia; 96-well plate, 37° C., 10 h",50 µg/mL
same,MIC E. cloacae,"Enterobacter cloacae; 96-well plate, 37° C., 10 h",25 µg/mL
same,MIC M. catarrhalis,"Moraxella catarrhalis; 96-well plate, 37° C., 10 h",50 µg/mL
same,MIC C. diversus,"Citrobacter diversus; 96-well plate, 37° C., 10 h",25 µg/mL
same,MIC P. mirabilis,"Proteus mirabilis; 96-well plate, 37° C., 10 h",25 µg/mL
same,MIC,E. coli DH5α,25 µg/mL
same,MIC A. hydrophila,"Aeromonas hydrophila; 96-well plate, 37° C., 10 h",12.5 µg/mL
PRT84 (EAGRCVPGVCRNGGTCTDAPNGGFRCQCPAGGAFEGPRCE; listed as Homo sapiens),MIC (μg/mL) P. vulgaris,"Proteus vulgaris; Proteus vulgaris, 96-well plate, 37° C., 10 h",25 µg/mL
same,MIC (μg/mL) E. coli BL21,"E. coli BL21; E. coli BL21, 96-well plate, 37° C., 10 h",25 µg/mL
same,MIC (μg/mL) P. aeruginosa,"Pseudomonas aeruginosa; Pseudomonas aeruginosa, 96-well plate, 37° C., 10 h",12.5 µg/mL
same,MIC (μg/mL) S. marcescens,"Serratia marcescens; Serratia marcescens, 96-well plate, 37° C., 10 h",12.5 µg/mL
same,MIC (μg/mL) K. pneumonia,"Klebsiella pneumonia; Klebsiella pneumonia, 96-well plate, 37° C., 10 h",25 µg/mL
same,MIC (μg/mL) E. cloacae,"Enterobacter cloacae; Enterobacter cloacae, 96-well plate, 37° C., 10 h",12.5 µg/mL
same,MIC (μg/mL) M. catarrhalis,"Moraxella catarrhalis; Moraxella catarrhalis, 96-well plate, 37° C., 10 h",25 µg/mL
same,MIC (μg/mL) C. diversus,"Citrobacter diversus; Citrobacter diversus, 96-well plate, 37° C., 10 h",12.5 µg/mL
same,MIC (μg/mL) P. mirabilis,"Proteus mirabilis; Proteus mirabilis, 96-well plate, 37° C., 10 h",12.5 µg/mL
same,MIC,E. coli DH5α,12.5 µg/mL
same,MIC (μg/mL) A. hydrophila,"Aeromonas hydrophila; Aeromonas hydrophila, 96-well plate, 37° C., 10 h",25 µg/mL
